In PubChem BioAssay (NCI):
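Step 1: Grow cells in 96-well plates. Step 2: Expose to compound for 48 hours at 5 concentrations. Step 3: Interpolate endpoints linearly; if unreached, use highest concentration. TGI denotes the concentration required for complete inhibition of growth.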

Key:
Assay in all cases: growth of human tumour cells (NCI), 48 h
SF-539 CNS = tested on: SF-539 CNS
A498 renal = tested on: A498 renal
HCT-116 colon = tested on: HCT-116 colon
SF-268 CNS = tested on: SF-268 CNS
MDA-MB-435 = tested on: MDA-MB-435
PC-3 prostate = tested on: PC-3 prostate
SR leukemia = tested on: SR leukemia
HS 578T breast = tested on: HS 578T breast
MALME-3M melanoma = tested on: MALME-3M melanoma
BT-549 breast = tested on: BT-549 breast

Compound | TGI (SF-539 CNS) | TGI (A498 renal) | TGI (HCT-116 colon) | TGI (SF-268 CNS) | TGI (MDA-MB-435) | TGI (PC-3 prostate) | TGI (SR leukemia) | TGI (HS 578T breast) | TGI (MALME-3M melanoma) | TGI (BT-549 breast)
CN(C)c1ccc(/C=N/n2c(-c3ccccc3)nc3ccccc3c2=O)cc1 | > 100 µM | > 100 µM | > 100 µM | > 100 µM | > 100 µM | > 100 µM | 83.6 µM | 92.4 µM | > 100 µM | > 100 µM
CC(=O)OC(CC(C)C)P1(=O)N(CC(C)(C)C)[C@@H]2CCCC[C@H]2N1CC(C)(C)C (some centres not stated) | 22.3 µM | 19.3 µM | 16.2 µM | 29.3 µM | 25.3 µM | 13.6 µM | 30.4 µM | 25.3 µM | 22.8 µM | 29.2 µM
O=c1c2ncn(C3CCCCO3)c2n(-c2ccccc2)c(=S)n1-c1ccccc1 (configuration not stated) | 32.4 µM | 89.6 µM | > 100 µM | > 92.2 µM | > 100 µM | > 100 µM | > 100 µM | 53.6 µM | > 100 µM | 72.1 µM
O=C(O)CS(=O)c1ccc2c3c(cccc13)C(=O)c1ccccc1-2 (configuration not stated) | > 100 µM | > 100 µM | > 100 µM | > 100 µM | > 100 µM | > 100 µM | > 100 µM | > 100 µM | > 100 µM | > 100 µM
O=c1[nH]nc(-c2ccc([N+](=O)[O-])cc2)n1/N=C/c1ccc([N+](=O)[O-])cc1 | > 100 µM | > 100 µM | > 100 µM | > 100 µM | > 100 µM | > 100 µM | > 100 µM | > 100 µM | > 100 µM | > 100 µM
COC(=O)c1c(O)ccc2c1c1c(n2Cc2ccc(OC)cc2)C(=O)c2ccccc2C1=O | 29.1 µM | 47.2 µM | 19.7 µM | 55 µM | 22.3 µM | 21.1 µM | 2.92 µM | 58.1 µM | 64.3 µM | 3.06 µM
COc1ccc2c(c1)c(=O)c1c(NCCCN(C)CCCNc3ccc4c(=O)n(CCN(C)C)c(=O)n5c6ccc(OC)cc6c(=O)c3c45)ccc3c(=O)n(CCN(C)C)c(=O)n2c31 | 1.95 µM | 3.39 µM | 1.13 µM | 1.88 µM | 0.756 µM | 0.858 µM | 0.255 µM | 1.73 µM | 2.42 µM | 2.12 µM
Cc1c(C#N)c2nnn(-c3ccc([N+](=O)[O-])cc3)c(=O)n2c1-c1ccccc1 | 28.1 µM | 29.5 µM | 19 µM | 32.4 µM | 42.9 µM | 14.7 µM | 46.3 µM | > 100 µM | 30.7 µM | 31.8 µM
Nc1nc2cc(CNc3ccc(C(=O)O)cc3)ccc2nc1-c1ccccc1 | > 100 µM | > 100 µM | > 100 µM | > 100 µM | > 100 µM | > 100 µM | > 100 µM | > 100 µM | > 100 µM | > 100 µM
Cc1ccc2ccc(=O)oc2c1 | > 100 µM | > 100 µM | > 100 µM | > 100 µM | > 100 µM | > 100 µM | > 100 µM | > 100 µM | > 100 µM | > 100 µM
CC1=NC2(CCCCC2)N(Cl)C(=O)C1SC#N (configuration not stated) | 35.9 µM | > 100 µM | – | 33.5 µM | 37.7 µM | 32.1 µM | > 100 µM | > 100 µM | 41.9 µM | 28.5 µM
COc1ccc(-c2cc(C3CC3)nc(SCC(=O)O)c2C#N)cc1 | > 100 µM | > 100 µM | > 100 µM | > 100 µM | > 100 µM | > 100 µM | > 100 µM | > 100 µM | – | > 100 µM
CC(=O)[C@H]1CC[C@H]2[C@@H]3CCC4=CC(=O)CC[C@]4(C)[C@H]3CC[C@]12C | 34.1 µM | 67.1 µM | 28.5 µM | 69.8 µM | 39.3 µM | 39.3 µM | > 100 µM | 19.7 µM | 35.8 µM | 32.1 µM
OC12C3C4CC5C(C4[C@@H]1Br)C2[C@@](O)(c1c(F)c(F)c(F)c(F)c1F)C53 (some centres not stated) | > 100 µM | > 100 µM | > 100 µM | > 100 µM | > 100 µM | 94.4 µM | 52.7 µM | 97.5 µM | – | > 100 µM
COc1cc(CCNC2=CC(=O)c3cccnc3C2=O)ccc1O | 3.04 µM | 7.6 µM | 4.8 µM | 7.7 µM | 0.317 µM | 18.7 µM | 12.2 µM | 3.56 µM | 2.32 µM | 2.75 µM
Cc1c(C)c2c(c(N)c1C#N)C(=O)N(OS(=O)(=O)c1ccccc1)C2=O | 34.2 µM | > 100 µM | 68.1 µM | > 100 µM | 58.8 µM | > 100 µM | > 100 µM | > 100 µM | 31.8 µM | 39.7 µM
C/C=C1\CN2CCC34c5ccccc5N(C)C35OCC4(C(=O)OC)C1CC25 (configuration not stated) | > 100 µM | > 100 µM | > 100 µM | > 100 µM | > 100 µM | > 100 µM | > 100 µM | > 100 µM | – | > 100 µM
CC(/C=N/N(C)C1=NCCCCN1)=N/N(C)C1=NCCCCN1 | > 100 µM | > 100 µM | > 100 µM | > 100 µM | > 100 µM | > 100 µM | > 100 µM | > 100 µM | > 100 µM | > 100 µM
CC1(CCc2ccccc2)CC1(Br)Br (configuration not stated) | > 100 µM | > 100 µM | > 100 µM | > 100 µM | 60.1 µM | > 100 µM | 41.6 µM | > 100 µM | 68.3 µM | > 100 µM
N#Cc1ccc(OC(=O)c2ccc(N=C(N)N)cc2)cc1 | > 100 µM | > 100 µM | > 100 µM | > 100 µM | > 100 µM | > 100 µM | > 100 µM | > 100 µM | > 100 µM | > 100 µM
c1nncn1C12C3C4C5C3C1C5C42 (configuration not stated) | > 100 µM | > 100 µM | > 100 µM | > 100 µM | > 100 µM | > 100 µM | > 100 µM | > 100 µM | – | > 100 µM
O=C(O)C(F)(F)C(F)(F)C(F)(F)C(F)(F)C(=O)O | – | > 100 µM | > 100 µM | > 100 µM | > 100 µM | > 100 µM | > 100 µM | > 100 µM | > 100 µM | > 100 µM
O=C(Nc1ccccc1)c1cc(S(=O)(=O)Nc2n[nH]c(=O)[nH]2)c(SSc2cc(Cl)c(C(=O)Nc3ccccc3)cc2S(=O)(=O)Nc2n[nH]c(=O)[nH]2)cc1Cl | – | > 100 µM | > 100 µM | > 100 µM | > 100 µM | > 100 µM | > 100 µM | > 100 µM | > 100 µM | > 100 µM
COC(=O)c1ccc(CCC2=CC(=O)C(Br)=CC2=O)cc1 | 31.8 µM | 36.5 µM | 30.3 µM | 43 µM | 31.2 µM | 30.9 µM | > 100 µM | 45 µM | 30.6 µM | 23.9 µM
CCOP(=O)(CC1CC(O)(CNc2cc(Cl)nc(N)n2)C1)OCC (configuration not stated) | > 100 µM | > 100 µM | > 100 µM | > 100 µM | > 100 µM | > 100 µM | > 100 µM | > 100 µM | > 100 µM | > 100 µM
OCCN1CN(c2nc(N3CN(CCO)C3)nc(N3CN(CCO)C3)n2)C1 | 35 µM | 96.2 µM | 42 µM | 48.3 µM | 32.4 µM | 49.8 µM | > 100 µM | 66.7 µM | 39.3 µM | 70.8 µM
O=C(O)CCC(C(=O)O)N1C(=O)c2ccccc2C1=O (configuration not stated) | – | > 100 µM | > 100 µM | > 100 µM | > 100 µM | > 100 µM | > 100 µM | > 100 µM | > 100 µM | > 100 µM
O=S(=O)(O)c1ccc2c(N=Nc3ccccc3)c(O)c(S(=O)(=O)O)cc2c1 | > 100 µM | > 100 µM | > 100 µM | > 100 µM | > 100 µM | > 100 µM | > 100 µM | > 100 µM | > 100 µM | > 100 µM
O=c1[nH]c2nccnc2c2c([N+](=O)[O-])cccc12 | > 100 µM | > 100 µM | > 100 µM | > 100 µM | > 100 µM | > 100 µM | > 100 µM | > 100 µM | > 100 µM | > 100 µM
